Data: US9688699B2, “3-(pyrimidine-2-yl)imidazo[1,2-a]pyridines” (Bayer Pharma Aktiengesellschaft, priority 2014, dated 2017)
Where a name gives a salt, the structure may show the parent alone.

Assays:
[1] = target: T1, recombinant guanylate cyclase reporter cell line (Rattus norvegicus, UniProt P19686+P20595); experiment: Effect on a recombinant guanylate cyclase reporter cell line (B-2); type: cell-based; settings: MEC = minimum effective concentration, in some cases mean values for individual determinations
T1 construct: expressed in transfected cells
T1 sequence (P19686 1-690): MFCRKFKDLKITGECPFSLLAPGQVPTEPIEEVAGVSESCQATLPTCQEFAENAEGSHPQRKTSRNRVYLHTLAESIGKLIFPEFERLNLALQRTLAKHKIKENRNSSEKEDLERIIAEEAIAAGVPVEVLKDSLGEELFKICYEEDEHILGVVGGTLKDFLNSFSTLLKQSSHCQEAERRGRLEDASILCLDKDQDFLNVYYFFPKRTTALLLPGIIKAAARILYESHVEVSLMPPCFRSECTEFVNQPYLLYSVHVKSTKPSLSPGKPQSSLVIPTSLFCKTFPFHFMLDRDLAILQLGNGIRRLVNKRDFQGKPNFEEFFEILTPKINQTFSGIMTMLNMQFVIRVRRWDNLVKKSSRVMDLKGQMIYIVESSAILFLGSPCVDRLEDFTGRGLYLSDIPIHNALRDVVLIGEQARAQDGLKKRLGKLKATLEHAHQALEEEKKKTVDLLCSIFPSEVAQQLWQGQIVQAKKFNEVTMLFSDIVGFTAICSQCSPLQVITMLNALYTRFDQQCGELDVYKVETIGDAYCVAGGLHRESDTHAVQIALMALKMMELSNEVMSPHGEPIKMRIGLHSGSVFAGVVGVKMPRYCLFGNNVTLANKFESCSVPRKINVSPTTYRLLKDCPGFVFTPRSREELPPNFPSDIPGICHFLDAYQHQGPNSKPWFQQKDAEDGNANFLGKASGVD
T1 sequence (P20595 1-619): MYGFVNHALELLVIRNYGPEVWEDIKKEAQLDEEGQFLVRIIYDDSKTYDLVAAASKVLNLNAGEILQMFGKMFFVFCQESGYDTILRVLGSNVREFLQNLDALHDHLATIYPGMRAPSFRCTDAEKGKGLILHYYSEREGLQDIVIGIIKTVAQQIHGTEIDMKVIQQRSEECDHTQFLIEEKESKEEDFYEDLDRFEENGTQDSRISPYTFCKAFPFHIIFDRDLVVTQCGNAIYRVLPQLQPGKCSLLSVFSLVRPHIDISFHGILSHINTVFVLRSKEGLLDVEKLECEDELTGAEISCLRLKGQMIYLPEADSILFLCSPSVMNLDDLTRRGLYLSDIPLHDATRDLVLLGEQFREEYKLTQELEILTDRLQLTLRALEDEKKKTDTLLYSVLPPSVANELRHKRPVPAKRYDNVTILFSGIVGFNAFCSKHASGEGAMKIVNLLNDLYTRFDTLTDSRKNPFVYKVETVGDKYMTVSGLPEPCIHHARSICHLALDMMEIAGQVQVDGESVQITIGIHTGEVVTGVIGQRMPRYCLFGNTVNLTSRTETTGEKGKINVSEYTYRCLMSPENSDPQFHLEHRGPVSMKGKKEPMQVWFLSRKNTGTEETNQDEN
Outline: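 Cellular guanylate cyclase activity measured in a recombinant reporter cell line expressing rat soluble guanylate cyclase subunits. Values are minimum effective concentrations (MEC), some as means of individual determinations.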

[2] = target: T2, human phosphodiesterase 5 (PDE 5) (Homo sapiens, UniProt O76074); experiment: Inhibition of human phosphodiesterase 5 (PDE 5) (B-3); type: biochemical; settings: PDE 5 preparation from human platelets; [8-3H] cGMP substrate, SPA; in some cases means of individual determinations
T2 construct: PDE 5 preparations are obtained from human platelets by disruption; from tissue; host or cells: human platelets (Mono Q ion exchange fractions with PDE 5 activity)
Outline: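 Enzyme partially purified from human platelets by Mono Q ion exchange; [8-3H]cGMP substrate (0.025 μCi), Tris-HCl pH 7.5 with MgCl2/EDTA, <70% conversion, 60 min at room temperature. Compounds tested at 4 to 0.0018 μM final; yttrium SPA bead read-out, IC50 from concentration–% inhibition plot.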

Compound: Cc1nc2c(OCc3c(F)cccc3F)cccn2c1-c1nc(CNC(=O)C2CC2)c2c(n1)NC(=O)C2(C)C [Example 66, N-[(2-{8-[(2,6-Difluorobenzyl)oxy]-2-methylimidazo[1,2-a]pyridin-3-yl}-5,5-dimethyl-6-oxo-6,7-dihydro-5H-pyrrolo[2,3-d]pyrimidin-4-yl)methyl]cyclopropanecarboxamide]
- MEC [1]: 3 µM
- IC50 [2]: 48 nM

Compound: Cc1nc2c(OCc3c(F)cccc3F)cc(Cl)cn2c1-c1nc(N)c2c(n1)NC(=O)C2(C)C [Example 67, 4-Amino-2-{6-chloro-8-[(2,6-difluorobenzyl)oxy]-2-methylimidazo[1,2-a]pyridin-3-yl}-5,5-dimethyl-5,7-dihydro-6H-pyrrolo[2,3-d]pyrimidin-6-one]
- MEC [1]: 0.03 µM
- IC50 [2]: 47 nM

Compound: Cc1nc2c(OCc3c(F)cccc3F)cccn2c1-c1nnc2c(n1)NC(=O)C2(C)C [Example 68, 3-{8-[(2,6-Difluorobenzyl)oxy]-2-methylimidazo[1,2-a]pyridin-3-yl}-7,7-dimethyl-5,7-dihydro-6H-pyrrolo[2,3-e][1,2,4]triazin-6-one]
- MEC [1]: 1 µM
- IC50 [2]: 260 nM

Compound: Cc1cc(OCc2c(F)cccc2F)c2nc(C)c(-c3nnc4c(n3)NC(=O)C4(C)C)n2c1 [Example 69, 3-{8-[(2,6-Difluorobenzyl)oxy]-2,6-dimethylimidazo[1,2-a]pyridin-3-yl}-7,7-dimethyl-5,7-dihydro-6H-pyrrolo[2,3-e][1,2,4]triazin-6-one]
- MEC [1]: 1 µM
- IC50 [2]: 790 nM

Compound: Cc1nc2c(OCc3c(F)ccc(F)c3F)cccn2c1-c1nc2c(c(-c3cc[nH]n3)n1)C(C)(C)C(=O)N2 [Example 74, 5,5-Dimethyl-2-{2-methyl-8-[(2,3,6-trifluorobenzyl)oxy]imidazo[1,2-a]pyridin-3-yl}-4-(1H-pyrazol-5-yl)-5,7-dihydro-6H-pyrrolo[2,3-d]pyrimidin-6-one]
- MEC [1]: 1 µM
- IC50 [2]: 30 nM

Compound: Cc1nc2c(OCc3c(F)ccc(F)c3F)cccn2c1-c1ncc2c(n1)NC(=O)C2(C)C [Example 75, 5,5-Dimethyl-2-{2-methyl-8-[(2,3,6-trifluorobenzyl)oxy]imidazo[1,2-a]pyridin-3-yl}-5,7-dihydro-6H-pyrrolo[2,3-d]pyrimidin-6-one formate]
- MEC [1]: 10 µM
- IC50 [2]: 370 nM
